From PMC6005341, “Identification of “sarsasapogenin-aglyconed” timosaponins as novel Aβ-lowering modulators of amyloid precursor protein processing” (Chemical Science, 2016)

Columns and labels:
Neuro-2A cells = assay: Neurite outgrowth, type III β-tubulin immunostaining; assay type: cell-based; conditions: at concentrations that lower Aβ production, 18 h
Experimental: Immunofluorescence examination of neurite outgrowth: Neuro-2A cells were seeded at 1×105 per glass bottom dishes. After treatment, cells were fixed with 4% paraformaldyde for 10 min, permeabilized with 0.1% Triton X-100, and then blocked with 1% BSA in PBS.
The cells were incubated with monoclonal antibody raised against type III β-tubulin (Sigma) for 1 h followed by Alexa488 conjugated secondary antibody. Neurite morphology was examined under fluorescence microscope. […]

β-secretase = target: T1, β-secretase (Mus musculus, UniProt P56818); assay: β-Secretase assay in N2A-APPswe cell protein extracts; assay type: biochemical
T1 construct: endogenous in cells; host or cells: N2A-APPswe (Neuro-2A stably expressing APP Swedish mutant)
Experimental: β-Secretase assays: Confluent N2A-APPswe cells were harvested and homogenized with 50
mM MES, pH5.5. Protein extracts (10 µg) were incubated with testing compounds or vehicle
for 1 h at room temperature. […]

Aβ42 levels in the brain = assay: In vivo brain Aβ42 level by ELISA after oral dosing; conditions: 100 mg kg^–1 oral gavage, three times in 2 days, 3–5 month old C57BL/6 mice
Experimental: was performed at least three times. The lowest binding scores were computed and the conformations of the corresponding binding pose presented.
Quantum mechanics/Molecular mechanics. The binding between transmembrane and substrate was further optimized using the QM/MM approach and NWChem software. The quantum part (QM) included TAIII (total 116 atoms), while the rest of the system was modelled as the molecular mechanics (MM) level. The QM region was treated at the DFT level using the B3LYP method. The 6-31G* Pople basis set was employed for all the atoms.
The transmembrane was described with the AMBER parm99 force field. The binding structure was solvated in a cubic box with 6872 classical SPC/E water molecules. Three negative counter ions (Cl-) were added to neutralize the charges in the system. The structure was optimized by performing the BFGS algorithm for the QM part and the steepest descent algorithm for the MM part. The optimization of these two regions (QM and MM) was alternated until self-consistency was reached.
Animal experiments: Male C57BL/6N mice were housed in environmentally controlled room (temperature: 25 ± 2 °C, humidity: 50 ± 5%, 12-h light-dark cycle) in Laboratory Animal Unit, The University of Hong Kong and were freely access to food and water. TAIII, TAI SSG and compound 34 were dissolved in 5% Tween 80 and given to the mice by oral gavage at three repeated doses of 100 mg/kg in 48 hours. Mice were administrated with 5% Tween 80 (control group), TAIII, TAI SSG and 34. The experimental procedures were performed with the approval of Committee of Use of Live Animal for Teaching and Research of The University of Hong Kong. Blood (about 600-800 µL) was collected by cardiac puncture and added with 1/10 volume of Na2EDTA (20 mg/mL) to prevent coagulation. After centrifugation at 3000 g for 15 min at 4 °C, plasma was transferred to a centrifuge tube. […] Both plasma and brain samples were stored at -80 °C until they were analyzed. The Aβ42 levels were determined by Wako High Sensitive Aβx-42 ELISA kit. […]

purified BACE1 = target: T2, purified BACE1 (Homo sapiens, UniProt P56817); assay: β-Secretase assay with purified BACE1; assay type: biochemical
T2 construct: purchased Millipore
Experimental: mM MES, pH5.5. Protein extracts (10 µg) were incubated with testing compounds or vehicle for 1 h at room temperature. The β-secretase activities were assayed by adding 10 µM fluorogenic β-secretase substrate (Millipore) to the reaction mixtures and the fluorescence (excitation, 380; emission, 460) were measured. β-Secretase assays were also performed using purified BACE1 (Millipore) at 100 ng in a buffer containing 50 mM MES, pH 5.5. […]

T1 sequence (P56818 46-501): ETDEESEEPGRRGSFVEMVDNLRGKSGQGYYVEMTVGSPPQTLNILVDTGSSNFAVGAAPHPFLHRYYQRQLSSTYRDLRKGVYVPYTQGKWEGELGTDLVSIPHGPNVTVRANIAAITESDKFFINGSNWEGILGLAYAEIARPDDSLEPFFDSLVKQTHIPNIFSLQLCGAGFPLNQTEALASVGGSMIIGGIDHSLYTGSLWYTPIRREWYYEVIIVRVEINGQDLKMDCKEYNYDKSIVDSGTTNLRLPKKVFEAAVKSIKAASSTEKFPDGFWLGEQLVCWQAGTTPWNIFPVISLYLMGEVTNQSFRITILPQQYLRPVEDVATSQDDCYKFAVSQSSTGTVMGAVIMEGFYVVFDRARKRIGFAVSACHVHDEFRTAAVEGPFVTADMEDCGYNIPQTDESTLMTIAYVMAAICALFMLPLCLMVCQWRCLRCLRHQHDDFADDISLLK
T2 sequence (P56817 46-501, species assumed): as the sequence (P56818 46-501) above, with S6P, I162V, I165L, T180S, A182V, V340I, A393L, H443Q counted along it

Compound | neurite outgrowth (Neuro-2A cells) | β-secretase activities in the cell extracts (β-secretase) | reduction of Aβ42 levels in the brain (Aβ42 levels in the brain) | activities of purified BACE1 (purified BACE1)
C[C@H]1CC[C@@]2(OC1)O[C@H]1C[C@H]3[C@@H]4CC[C@@H]5C[C@@H](O)CC[C@]5(C)[C@H]4CC[C@]3(C)[C@H]1[C@@H]2C [SSG (1), sarsasapogenin] | markedly stimulated | no change |  | 
C[C@H]1CC[C@@]2(OC1)O[C@H]1C[C@H]3[C@@H]4CC[C@@H]5C[C@@H](O[C@@H]6O[C@H](CO)[C@H](O)[C@H](O)[C@H]6O)CC[C@]5(C)[C@H]4CC[C@]3(C)[C@H]1[C@@H]2C [TAI (3), timosaponin A I] |  |  | 87% ± 14% | 
C[C@H]1CC[C@@]2(OC1)O[C@H]1C[C@H]3[C@@H]4CC[C@@H]5C[C@@H](O[C@@H]6O[C@H](CO)[C@H](O)[C@H](O)[C@H]6O[C@@H]6O[C@H](CO)[C@@H](O)[C@H](O)[C@H]6O)CC[C@]5(C)[C@H]4CC[C@]3(C)[C@H]1[C@@H]2C [TAIII (2), timosaponin A III] |  | did not affect | 83% ± 13% | did not affect
